Patent publication US8383683B2, “Pharmaceutical use of substituted amides” (High Point Pharmaceuticals, LLC, priority 2007, dated 2013)

Columns and labels:
11βHSD1 [1] = biological target: T1, 11βHSD1 (Homo sapiens, UniProt P28845); set-up: host or cells: human volunteers and patients (in vivo); conditions: lean healthy volunteers and people with type 2 diabetes; cited from earlier work
11βHSD1 [2] = biological target: T1, 11βHSD1; test: 11βHSD1 enzyme assay (SPA, 3H-cortisone to 3H-cortisol); assay type: biochemical; set-up: An extract of yeast transformed with h-11βHSD1 (Hutt et al., FEBS Lett., 441, 25 (1998)) was used as the source of enzyme; made in house; conditions: extract of yeast transformed with h-11βHSD1; 120 nM 3H-cortisone, 4 mM β-NADPH, 60 min at 30° C.
Procedure: Pharmacological Methods 11βHSD1 Enzyme Assay Materials
^3H-cortisone and anti-rabbit Ig coated scintillation proximity assay (SPA) beads were purchased from Amersham Pharmacia Biotech, β-NADPH was from Sigma and rabbit anti-cortisol antibodies were from Fitzgerald. An extract of yeast transformed with h-11βHSD1 (Hutt et al., FEBS Lett., 441, 25 (1998)) was used as the source of enzyme. The test compounds were dissolved in DMSO (10 mM). All dilutions were performed in a buffer containing 50 mM TRIS-HCl (Sigma Chemical Co), 4 mM EDTA (Sigma Chemical Co), 0.1% BSA (Sigma Chemical Co), 0.01% Tween-20 (Sigma Chemical Co) and 0.005% bacitracin (Novo Nordisk NS), pH=7.4. Optiplate 96 wells plates were supplied by Packard. The amount of ^3H-cortisol bound to the SPA beads was measured on TopCount NXT, Packard.
h-11βHSD1, 120 nM ^3H-cortisone, 4 mM β-NADPH, antibody (1:200), serial dilutions of test compound and SPA particles (2 mg/well) were added to the wells. The reaction was initiated by mixing the different components and was allowed to proceed under shaking for 60 min at 30° C. The reaction was stopped be the addition of 10 fold excess of a stopping buffer containing 500 μM carbenoxolone and 1 μM cortisone. Data was analysed using GraphPad Prism software.

T1 sequence (P28845 whole entry): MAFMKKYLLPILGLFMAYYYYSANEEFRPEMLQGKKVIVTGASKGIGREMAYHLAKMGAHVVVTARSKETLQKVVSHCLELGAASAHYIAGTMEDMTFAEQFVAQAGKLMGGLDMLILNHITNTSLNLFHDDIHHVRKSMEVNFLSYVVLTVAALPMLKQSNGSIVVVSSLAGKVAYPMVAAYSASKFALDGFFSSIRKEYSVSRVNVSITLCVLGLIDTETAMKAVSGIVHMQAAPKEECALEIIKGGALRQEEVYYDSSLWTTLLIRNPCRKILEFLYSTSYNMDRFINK

Row | SMILES | insulin sensitivity (11βHSD1 [1]) | IC50 (11βHSD1 [2])
1 | CC1(C)[C@@H](OC(=O)CCC(=O)O)CC[C@]2(C)[C@H]3C(=O)C=C4[C@@H]5C[C@@](C)(C(=O)O)CC[C@]5(C)CC[C@@]4(C)[C@]3(C)CC[C@@H]12 [carbenoxolone] | improves insulin sensitivity | –
2 | CN(C(=O)CCCOc1ccc(Cl)cc1Cl)[C@H]1CCCC[C@@H]1O [Example 1-57, 4-(2,4-Dichloro-phenoxy)-N-((1S,2S)-2-hydroxy-cyclohexyl)-N-methyl-butyramide] | – | 628 nM
3 | O=C(CCCOc1ccc(Cl)cc1Cl)NC1CCC(CO)CC1 (stereo not drawn) [Example 1-75, 4-(2,4-Dichloro-phenoxy)-N-(4-hydroxy-methyl-cyclohexyl)-butyramide] | – | 27 nM
4 | COC(=O)C12CC3CC(C1)C(NC(=O)CCCOc1ccc(Cl)cc1Cl)C(C3)C2 (stereo not drawn) [Example 1-68, 4-[4-(2,4-Dichloro-phenoxy)-butyrylamino]-adamantane-1-carboxylic acid methyl ester] | – | 17 nM
5 | O=C(CCCOc1ccc(Cl)cc1Cl)N1CCCCC1c1ccccc1 (stereo not drawn) [Example 1-10, 4-(2,4-Dichloro-phenoxy)-1-(2-phenyl-piperidin-1-yl)-butan-1-one] | – | 201 nM
6 | CN(C(=O)CCCOc1ccc(Cl)cc1Cl)C1CCC(S(N)(=O)=O)CC1 (stereo not drawn) [Example 1-69, 4-(2,4-Dichloro-phenoxy)-N-methyl-N-(4-sulfamoyl-cyclohexyl)-butyramide] | – | 2 nM
7 | CCN(C(=O)CCCOc1ccccc1)C1C2CC3CC1CC(O)(C3)C2 (stereo not drawn) [Example 1-51, N-Ethyl-N-(5-hydroxy-adamantan-2-yl)-4-phenoxy-butyramide] | – | 61 nM
8 | O=C(NC1C2CC3CC1CC(O)(C3)C2)C1(CCOc2ccc(Cl)cc2Cl)CC1 (stereo not drawn) [Example 2-5, 1-[2-(2,4-Dichloro-phen-oxy)-ethyl]-cyclo-pro-panecarboxylic acid (5-hydroxy-adamantan-2-yl)-amide] | – | 4 nM
9 | CN(C(=O)CCCOc1ccccc1)C1CCC(O)CC1 (stereo not drawn) [Example 1-37, N-(4-Hydroxy-cyclohexyl)-N-methyl-4-phenoxy-butyramide] | – | 1820 nM
10 | O=C(CCCOc1ccc(Cl)cc1Cl)NC12CC3CC(C1)CC(C(=O)O)(C3)C2 [Example 1-20, 3-[4-(2,4-Dichloro-phenoxy)-butyrylamino]-adamantane-1-carboxylic acid] | – | 13 nM
11 | CC(C)N(C(=O)CCCOc1ccccc1)C1C2CC3CC1CC(O)(C3)C2 (stereo not drawn) [Example 1-49, N-(5-Hydroxy-adamantan-2-yl)-N-isopropyl-4-phenoxy-butyramide] | – | 141 nM
12 | CCOC(=O)C12CCC(NC(=O)CCCOc3ccc(Cl)cc3Cl)(CC1)CC2 [Example 1-72, 4-[4-(2,4-Dichloro-phenoxy)-butyrylamino]-bicyclo[2.2.2]octane-1-carboxylic acid ethyl ester] | – | 198 nM
13 | O=C(CCCOc1ccccn1)NC1C2CC3CC1CC(O)(C3)C2 (stereo not drawn) [Example 1-87, N-(5-Hydroxy-adamantan-2-yl)-4-(pyridin-2-yloxy)-butyramide] | – | 227 nM
14 | O=C(CCCOc1ccc(Cl)cc1Cl)N(C1CC1)C1C2CC3CC1CC(O)(C3)C2 (stereo not drawn) [Example 1-19, N-Cyclopropyl-4-(2,4-dichloro-phenoxy)-N-(5-hydroxy-adamantan-2-yl)-butyramide] | – | 24 nM
15 | O=C(CCCOc1ccc(Cl)cc1Cl)N1CC2CC(O)CC1C2 (stereo not drawn) [Example 1-25, 4-(2,4-Dichloro-phenoxy)-1-(3-hydroxy-6-aza-bicyclo[3.2.1]oct-6-yl)-butan-1-one] | – | 185 nM
16 | O=C(CCCOc1ccc(Cl)cc1Cl)N1CC2CC3CC1CC(O)(C3)C2 (stereo not drawn) [Example 1-22, 4-(2,4-Dichloro-phenoxy)-1-(1-hydroxy-4-aza-tricyclo-[4.3.1.1{3,8}]undec-4-yl)-butan-1-one] | – | 6 nM
17 | CN(C(=O)CCCOc1ccc(Cl)cc1Cl)C1C2CC3CC1CC(O)(C3)C2 (stereo not drawn) [Example 1-32, 4-(2,4-Dichloro-phenoxy)-N-(5-hydroxy-adamantan-2-yl)-N-methyl-butyramide] | – | 4 nM
18 | O=C(CCCOc1ccc(Cl)cc1Cl)NC1C2CC3CC1CC(O)(C3)C2 (stereo not drawn) [Example 1-27, 4-(2,4-Dichloro-phenoxy)-N-(5-hydroxy-adamantan-2-yl)-butyramide] | – | 4 nM
19 | CN(C(=O)CCCOc1ccccc1)C1C2CC3CC1CC(O)(C3)C2 (stereo not drawn) [Example 1-43, N-(5-Hydroxy-adamantan-2-yl)-N-methyl-4-phenoxy-butyramide] | – | 58 nM
20 | COC(=O)C12CC3CC(CC(NC(=O)CCCOc4ccc(Cl)cc4Cl)(C3)C1)C2 [Example 1-30, 3-[4-(2,4-Dichloro-phenoxy)-butyrylamino]-adamantane-1-carboxylic acid methyl ester] | – | 10 nM

Row | SMILES | insulin sensitivity (11βHSD1 [1]) | IC50 (11βHSD1 [2])
21 | CN(C(=O)CCCOc1ccc(Cl)cc1Cl)C1CC2CC1CC2CO (stereo not drawn) [Example 1-84] | – | 30 nM
22 | O=C(CCCOc1ccc(Cl)cc1Cl)NC12CCC(CO)(CC1)CC2 [Example 1-73, 4-(2,4-Dichloro-phenoxy)-N-(4-hydroxy-methyl-bicyclo[2.2.2]oct-1-yl)-butyramide] | – | 1 nM
23 | CN(C(=O)CCCOc1ccc(Cl)cc1Cl)C1CCC(O)CC1 (stereo not drawn) [Example 1-26, 4-(2,4-Dichloro-phenoxy)-N-(4-hydroxy-cyclohexyl)-N-methyl-butyramide] | – | 21 nM
24 | O=C(CCCOc1ccccc1)N1CC2CCC1C2O (stereo not drawn) [Example 1-48, 1-(7-Hydroxy-2-aza-bicyclo[2.2.1]hept-2-yl)-4-phenoxy-butan-1-one] | – | 1080 nM
25 | O=C(CCCOc1ccc(Cl)cc1Cl)N1CC2CCC1C2O (stereo not drawn) [Example 1-29, 4-(2,4-Dichloro-phenoxy)-1-(7-hydroxy-2-aza-bicyclo[2.2.1]hept-2-yl)-butan-1-one] | – | 14 nM
26 | O=C(CCCOc1ccc(Cl)cc1Cl)N1CC2CCC1CC2O (stereo not drawn) [Example 1-36, 4-(2,4-Dichloro-phenoxy)-1-(5-hydroxy-2-aza-bicyclo[2.2.2]oct-2-yl)-butan-1-one] | – | 397 nM
27 | O=C(CCCOc1ccc(Cl)cc1Cl)N1CC2CC(O)C1C2 (stereo not drawn) [Example 1-23, 4-(2,4-Dichloro-phenoxy)-1-(6-hydroxy-2-aza-bicyclo[2.2.1]hept-2-yl)-butan-1-one] | – | 151 nM
28 | O=C(CCCOc1ccccc1)NC1C2CC3CC1CC(O)(C3)C2 (stereo not drawn) [Example 1-39, N-(5-Hydroxy-adamantan-2-yl)-4-phenoxy-butyramide] | – | 50 nM
29 | CC(C)(O)C1CCC(NC(=O)CCCOc2ccc(Cl)cc2Cl)CC1 (stereo not drawn) [Example 1-79, 4-(2,4-Dichloro-phenoxy)-N-[4-(1-hydroxy-1-methyl-ethyl)-cyclohexyl]-butyramide] | – | 300 nM
30 | CC(C)(CCOc1ccc(Cl)cc1Cl)C(=O)N1C2CCC1CC(O)C2 (stereo not drawn) [Example 2-3, 4-(2,4-Dichloro-phen-oxy)-1-(3-hydroxy-8-aza-bicyclo[3.2.1]oct-8-yl)-2,2-dimethyl-butan-1-one] | – | 206 nM
31 | CC1(C)[C@H]2CC[C@@H](CNC(=O)CCCOc3ccc(Cl)cc3Cl)[C@@H]1C2 [Example 1-11, 4-(2,4-Dichloro-phen-oxy)-N-((1S,2R,5S)-6,6-dimethyl-bicyclo[3.1.1]-hept-2-ylmethyl)-butyr-amide] | – | 271 nM
32 | CN(C(=O)CCCOc1ccccc1)C1C2CC3CC1CC(O)(C3)C2 (stereo not drawn) [Example 1-42, N-(5-Hydroxy-adamantan-2-yl)-N-methyl-4-phenoxy-butyramide] | – | 1340 nM
33 | CN(C(=O)CCCOc1ccc(Cl)cc1Cl)C1CCC(C(N)=O)CC1 (stereo not drawn) [Example 1-76, 4-{[4-(2,4-Dichloro-phenoxy)-butyryl]-methyl-amino}-cyclo-hexanecarboxylic acid amide] | – | 18 nM
34 | O=C(CCCOc1ccc(Cl)cc1Cl)N1CC2CC1CC2O (stereo not drawn) [Example 1-24, 4-(2,4-Dichloro-phenoxy)-1-(5-hydroxy-2-aza-bicyclo[2.2.1]hept-2-yl)-butan-1-one] | – | 20 nM
35 | O=C(CCCOc1ccc(Cl)cc1Cl)N1CC2CCC(CC2)C1 [Example 1-15, 1-(3-Aza-bicyclo[3.2.2]-non-3-yl)-4-(2,4-di-chloro-phenoxy)-butan-1-one] | – | 52 nM
36 | O=C(CCCOc1ccc(Cl)cc1Cl)N[C@@]12C[C@@H]3C[C@@H](C[C@@](O)(C3)C1)C2 [Example 1-1, 4-(2,4-Dichloro-phenoxy)-N-((1R,3S,5R,7S)-3-hydroxy-adamantan-1-yl)-butyramide] | – | 27 nM
37 | CC(C)(CCOc1ccc(Cl)cc1Cl)C(=O)NC1C2CC3CC1CC(O)(C3)C2 (stereo not drawn) [Example 2-1, 4-(2,4-Dichloro-phenoxy)-N-(5-hydroxy-adamantan-2-yl)-2,2-dimethyl-butyramide] | – | 2 nM
38 | COC(=O)C12CC3CC(CC(NC(=O)CCCOc4ccccc4)(C3)C1)C2 [Example 1-52, 3-(4-Phenoxy-butyryl-amino)-adamantane-1-carboxylic acid methyl ester] | – | 54 nM
39 | O=C(CCCOc1ccc(Cl)cc1Cl)N1CCCCC1c1ccccc1Cl (stereo not drawn) [Example 1-4, 1-[2-(2-Chloro-phenyl)-piperidin-1-yl]-4-(2,4-dichloro-phenoxy)-butan-1-one] | – | 296 nM
